Here are results for two compounds from paper PMC7997411, “Discovery and Optimization of Selective Inhibitors of Meprin α (Part II)” (Pharmaceuticals, 2021).

Assay type in all cases: biochemical
One experiment concerns the target T1, human meprin β (Homo sapiens, UniProt Q16820).
T1 construct: His-tag; made in house; host or cells: BTI-TN-5B1-4 insect cells (baculovirus, amplified in Sf9)
T1 sequence (Q16820 62-701): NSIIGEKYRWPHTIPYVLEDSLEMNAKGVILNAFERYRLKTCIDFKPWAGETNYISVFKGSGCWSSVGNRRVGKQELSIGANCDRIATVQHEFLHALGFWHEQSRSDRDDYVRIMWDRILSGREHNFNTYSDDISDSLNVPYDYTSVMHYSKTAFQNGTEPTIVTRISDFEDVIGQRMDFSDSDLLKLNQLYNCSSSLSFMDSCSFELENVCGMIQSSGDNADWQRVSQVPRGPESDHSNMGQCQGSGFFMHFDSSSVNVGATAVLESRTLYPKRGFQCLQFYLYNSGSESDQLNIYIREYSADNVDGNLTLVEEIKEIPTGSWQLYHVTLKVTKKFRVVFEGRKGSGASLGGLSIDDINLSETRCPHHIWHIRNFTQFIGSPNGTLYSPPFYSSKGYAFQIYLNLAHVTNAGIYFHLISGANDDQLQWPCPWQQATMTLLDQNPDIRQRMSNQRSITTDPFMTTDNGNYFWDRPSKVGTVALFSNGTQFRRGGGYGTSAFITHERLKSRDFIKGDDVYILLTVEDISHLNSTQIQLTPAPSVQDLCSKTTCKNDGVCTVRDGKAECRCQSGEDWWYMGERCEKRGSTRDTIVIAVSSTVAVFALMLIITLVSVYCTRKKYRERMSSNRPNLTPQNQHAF
In words: Meprin β assay in a 384-well plate (fluorogenic substrate Mca-EDEDED-K(Dnp)). Particulars: for IC50: triplicate, ± SD. How it is done: Recombinant human meprin α and meprin β were expressed using the Bac-to-Bac expression system (Gibco Life Technologies, Paisley, UK) as described before. Media and supplements were obtained from Gibco Life Technologies. Recombinant Baculoviruses were amplified in adherently growing Spodoptera frugiperda (Sf)9 insect cells at 27 °C in Grace’s insect medium supplemented with 10% fetal bovine serum, 50 units/mL penicillin, and 50 μg/mL streptomycin. Protein expression was performed in 500 mL suspension cultures of BTI-TN-5B1-4 insect cells growing in Express Five SFM supplemented with 4 mM glutamine, 50 units/mL penicillin, and 50 μg/mL streptomycin in Fernbach-flasks using a Multitron orbital shaker (INFORS AG, Bottmingen, Switzerland). Cells were infected at a density of 2 × 10^6 cells/mL with an amplified viral stock at a MOI of ~10. […] Meprins were activated by trypsin, which was removed afterwards by affinity chromatography using a column containing immobilized chicken ovomucoid, a trypsin inhibitor.
Both assays followed the same general protocol. […] After 30 min incubation at RT, the reactions were started by addition of 5 µL of 2× solutions of substrates (20 µM, meprin α Mca-YVADAPK-K(Dnp), and for meprin β Mca-EDEDED-K(Dnp)).

The target in the next experiment is T2, ADAM17 (Homo sapiens, UniProt P78536).
T2 construct: purchased R&D Systems 930-ADB
In words: ADAM17 assay. How it is done:
(§1) MMP-1, MMP-2, MMP-8, MMP-9, MMP-10, MMP-13, MMP-14, ADAM10, ADAM17 and Mca-KPLGL-Dpa-AR-NH2 fluorogenic peptide substrate were purchased from R&D Systems (cat # 901-MP, 902-MP, 908-MP, 911-MP, 910-MP, 511-MM, 918-MP, 936-AD, 930-ADB, and ES010, respectively). All common chemicals were purchased from Sigma. NFF449 was purchased from Tocris (cat# 1391) and actinonin was from Sigma-Aldrich, St. Louis, MO, USA (cat# 01809).
Both assays followed the same general protocol. 2.5 µL of 2× enzyme solution (20 nM) in assay buffer (10 mM HEPES, 0.001% Brij-35, pH 7.5) were added to solid bottom black 384 plates (Greiner, cat# 789075). Next, test compounds and pharmacological controls were added to corresponding wells using a 384-pin tool device (V&P Scientific, San Diego). After 30 min incubation at RT, the reactions were started by addition of 2.5 µL of 2× solutions of substrate (R&D Systems cat#: ES010, Mca-KPLGL-Dpa-AR-NH2, 20 µM). Reactions were incubated at RT for 2 h, after which the fluorescence was measured using a Perkin Elmer Viewlux multimode microplate imager (λexcitation = 324 nm, λemission = 393 nm). All compounds were tested in 10-point, 1:3 serial dilutions dose-response format starting with highest concentration of 100 µM. IC50 values were determined using non-linear regression analysis using the GraphPad Prism 8.0 suite of programs.

The target of another experiment is T3, MMP9 (Homo sapiens, UniProt P14780).
T3 construct: purchased R&D Systems 911-MP
Kind of experiment: MMP assay (fluorogenic substrate ES010). The protocol: as §1
(§2) All assays followed the same general protocol. 5 µL of 2× enzyme solution (5 nM) in assay buffer (50 mM Tricine, 50 mM NaCl, 10 mM CaCl2, 0.05% Brij-35, pH 7.5) were added to solid-bottom black 384 plates (Nunc, cat# 264705). Next, test compounds and pharmacological controls were added to corresponding wells using a 384-pin tool device (V&P Scientific, San Diego). After 30 min incubation at RT, the reactions were started by addition of 5 µL of 2× solutions of MMP substrate (R&D Systems cat#: ES010, 20 µM). Reactions were incubated at RT for 1 h, after which the fluorescence was measured using the Synergy H4 multimode microplate reader (Biotek Instruments) (λexcitation = 324 nm, λemission = 390 nm). All compounds were tested in 10-point, 1:3 serial dilutions dose-response format starting with highest concentration of 100 µM. IC50 values were determined using non-linear regression analysis using the GraphPad Prism 8.0 suite of programs.

The target in a further experiment is T4, MMP13 (Homo sapiens, UniProt P45452).
T4 construct: purchased R&D Systems 511-MM
Kind of experiment: MMP assay (fluorogenic substrate ES010). The protocol: as §1, §2

Several values for one entry are separate records, joined by “and”; a condition that tells them apart may be missing. Equal values may be shown once.

T2 sequence (P78536 215-824): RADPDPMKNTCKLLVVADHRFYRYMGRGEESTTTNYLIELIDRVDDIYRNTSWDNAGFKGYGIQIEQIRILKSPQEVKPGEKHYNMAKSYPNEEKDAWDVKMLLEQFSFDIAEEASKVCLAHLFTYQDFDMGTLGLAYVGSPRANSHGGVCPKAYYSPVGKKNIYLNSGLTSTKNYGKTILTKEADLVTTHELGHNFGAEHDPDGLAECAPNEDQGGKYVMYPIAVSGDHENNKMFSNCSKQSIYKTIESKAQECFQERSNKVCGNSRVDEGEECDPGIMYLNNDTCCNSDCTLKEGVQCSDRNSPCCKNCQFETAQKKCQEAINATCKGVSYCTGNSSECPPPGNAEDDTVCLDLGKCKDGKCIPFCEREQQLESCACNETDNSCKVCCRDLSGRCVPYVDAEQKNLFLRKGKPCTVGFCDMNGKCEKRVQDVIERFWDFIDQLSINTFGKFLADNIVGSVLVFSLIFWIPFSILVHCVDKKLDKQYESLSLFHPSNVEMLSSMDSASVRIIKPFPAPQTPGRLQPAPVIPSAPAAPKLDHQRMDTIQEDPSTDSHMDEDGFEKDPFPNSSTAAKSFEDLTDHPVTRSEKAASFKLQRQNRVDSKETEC
T3 sequence (P14780 94-707): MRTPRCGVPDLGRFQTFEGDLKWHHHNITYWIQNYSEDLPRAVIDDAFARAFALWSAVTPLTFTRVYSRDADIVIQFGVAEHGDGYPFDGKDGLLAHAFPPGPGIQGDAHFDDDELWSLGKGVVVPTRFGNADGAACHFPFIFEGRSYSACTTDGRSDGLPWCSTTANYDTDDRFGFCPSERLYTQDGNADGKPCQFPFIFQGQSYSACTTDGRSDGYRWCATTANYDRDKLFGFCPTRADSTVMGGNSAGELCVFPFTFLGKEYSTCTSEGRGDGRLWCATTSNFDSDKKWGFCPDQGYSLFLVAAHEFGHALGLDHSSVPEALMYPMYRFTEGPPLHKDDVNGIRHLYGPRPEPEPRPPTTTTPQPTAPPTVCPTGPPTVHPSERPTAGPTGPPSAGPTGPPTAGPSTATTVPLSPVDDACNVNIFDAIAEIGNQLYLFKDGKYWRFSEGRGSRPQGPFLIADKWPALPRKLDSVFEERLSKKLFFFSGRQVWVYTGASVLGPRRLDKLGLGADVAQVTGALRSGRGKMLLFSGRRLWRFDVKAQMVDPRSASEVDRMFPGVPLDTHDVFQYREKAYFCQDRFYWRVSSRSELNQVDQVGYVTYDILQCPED

The term IC50 denotes the concentration that gives 50% inhibition. Turning to `CCCCC[C@H](CC(=O)NO)C(=O)N[C@H](C(=O)N1CCC[C@H]1CO)C(C)C` [Actinonin, actinonin, reference compound], the IC50 is 4.8 ± 0.5 µM against human meprin β, 0.2 ± 0.02 µM at ADAM17, 0.1 ± 0.01 µM at MMP9 and 0.1 µM on MMP13.
`COc1cc(OC)nc(SCc2nnc(SCC(=O)NO)n2-c2ccc(N(C)C)cc2)n1` [SR24717]: the “extent of meprin β inhibition (in words)” value at human meprin β (scale-up batch, higher doses tested, Figure 4A) is recorded as “only partial meprin β inhibition”. The IC50 against human meprin β is ≥ 70 µM and 70 µM; against ADAM17 it was above 100 µM; on MMP9, above 100 µM; at MMP13, above 100 µM.
